Measured values from US11007270B2, “Polymer-semaxanib moiety conjugates” (Nektar Therapeutics, priority 2010, dated 2021).
Values belong to the compound of their own block, whether it stands above or below them.

Assays:
[1] = target: VEGFR-2 (Homo sapiens, UniProt P35968); experiment: VEGFR-2 kinase inhibition, Caliper screening (fluorescent substrate phosphorylation, electrophoretic separation); conditions: for VEGFR-2 Fold: fold of IC50 relative to sunitinib
[2] = target: RET (Homo sapiens, UniProt P07949); experiment: RET kinase inhibition, Caliper screening (fluorescent substrate phosphorylation, electrophoretic separation); conditions: for RET Fold: fold of IC50 relative to sunitinib
Sequence of RET (P07949 29-1114, species assumed): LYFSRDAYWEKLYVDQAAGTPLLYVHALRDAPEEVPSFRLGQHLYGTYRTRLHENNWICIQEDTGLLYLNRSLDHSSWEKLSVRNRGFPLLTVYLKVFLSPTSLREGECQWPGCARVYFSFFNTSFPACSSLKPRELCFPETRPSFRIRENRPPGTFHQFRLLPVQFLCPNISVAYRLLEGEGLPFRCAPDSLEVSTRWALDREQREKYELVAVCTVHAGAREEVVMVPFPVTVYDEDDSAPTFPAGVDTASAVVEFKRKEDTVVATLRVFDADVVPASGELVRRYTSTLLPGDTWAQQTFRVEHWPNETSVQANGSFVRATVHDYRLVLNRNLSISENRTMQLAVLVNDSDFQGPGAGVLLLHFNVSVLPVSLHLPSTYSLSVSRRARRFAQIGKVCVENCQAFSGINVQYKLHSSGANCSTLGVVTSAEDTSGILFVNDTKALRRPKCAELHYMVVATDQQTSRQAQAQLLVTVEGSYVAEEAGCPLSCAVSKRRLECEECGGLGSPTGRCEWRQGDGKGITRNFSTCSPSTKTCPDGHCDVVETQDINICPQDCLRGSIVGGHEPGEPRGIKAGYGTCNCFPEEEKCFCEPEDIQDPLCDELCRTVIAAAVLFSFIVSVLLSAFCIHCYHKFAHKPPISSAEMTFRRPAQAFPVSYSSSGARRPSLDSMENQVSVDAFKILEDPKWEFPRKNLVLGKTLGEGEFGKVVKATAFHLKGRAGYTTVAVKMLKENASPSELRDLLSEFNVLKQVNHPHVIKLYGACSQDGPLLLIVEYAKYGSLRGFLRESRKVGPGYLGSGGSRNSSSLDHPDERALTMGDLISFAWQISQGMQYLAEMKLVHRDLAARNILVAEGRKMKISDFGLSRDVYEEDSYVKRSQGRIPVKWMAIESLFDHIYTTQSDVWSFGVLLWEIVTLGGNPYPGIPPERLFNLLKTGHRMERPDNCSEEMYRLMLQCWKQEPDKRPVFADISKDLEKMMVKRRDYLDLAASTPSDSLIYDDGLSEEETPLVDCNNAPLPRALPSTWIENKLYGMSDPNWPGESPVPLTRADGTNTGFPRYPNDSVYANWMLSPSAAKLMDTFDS

[3] = target: c-Kit (Homo sapiens, UniProt P10721); experiment: c-Kit tyrosine kinase inhibition, Caliper screening (fluorescent substrate phosphorylation, electrophoretic separation); assay type: biochemical; conditions: for IC50: averages of replicate wells; for c-Kit Fold: fold of IC50 relative to sunitinib
Sequence of c-Kit (P10721 26-976): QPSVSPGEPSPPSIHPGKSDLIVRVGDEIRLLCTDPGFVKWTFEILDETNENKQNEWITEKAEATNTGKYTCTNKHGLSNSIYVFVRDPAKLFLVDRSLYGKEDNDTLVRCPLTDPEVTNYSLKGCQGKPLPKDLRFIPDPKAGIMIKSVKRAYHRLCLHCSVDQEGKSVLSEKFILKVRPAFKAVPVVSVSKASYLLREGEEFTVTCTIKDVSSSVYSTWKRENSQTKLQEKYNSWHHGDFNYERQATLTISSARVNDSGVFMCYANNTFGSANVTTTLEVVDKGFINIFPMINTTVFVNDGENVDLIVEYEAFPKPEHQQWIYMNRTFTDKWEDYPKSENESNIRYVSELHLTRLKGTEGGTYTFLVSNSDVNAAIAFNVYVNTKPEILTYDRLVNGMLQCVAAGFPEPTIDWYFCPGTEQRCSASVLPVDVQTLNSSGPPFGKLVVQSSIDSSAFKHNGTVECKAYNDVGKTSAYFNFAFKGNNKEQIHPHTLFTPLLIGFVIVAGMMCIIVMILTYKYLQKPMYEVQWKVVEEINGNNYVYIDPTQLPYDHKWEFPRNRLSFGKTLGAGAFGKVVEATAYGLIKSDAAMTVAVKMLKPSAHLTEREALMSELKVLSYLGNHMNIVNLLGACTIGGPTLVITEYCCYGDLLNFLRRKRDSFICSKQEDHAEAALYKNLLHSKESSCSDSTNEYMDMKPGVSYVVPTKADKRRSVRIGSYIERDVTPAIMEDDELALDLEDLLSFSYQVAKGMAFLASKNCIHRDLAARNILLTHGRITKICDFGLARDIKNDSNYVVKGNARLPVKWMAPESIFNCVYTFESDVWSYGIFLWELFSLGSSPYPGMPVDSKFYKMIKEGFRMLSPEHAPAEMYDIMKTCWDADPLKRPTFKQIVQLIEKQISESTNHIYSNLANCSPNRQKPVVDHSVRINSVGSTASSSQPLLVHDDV

[4] = concentration 1.0E−05 (unit not given)
[5] = concentration 1.0E−06 (unit not given)
[6] = concentration 1.0E−07 (unit not given)
[7] = concentration 1.0E−08 (unit not given)
[8] = concentration 1.0E−09 (unit not given)
[9] = concentration 1.0E−10 (unit not given)
[10] = concentration 3.0E−05 (unit not given)
[11] = concentration 3.0E−06 (unit not given)
[12] = concentration 3.0E−07 (unit not given)
[13] = concentration 3.0E−08 (unit not given)
[14] = concentration 3.0E−09 (unit not given)
[15] = concentration 3.0E−10 (unit not given)

Sequence of VEGFR-2 (P35968 20-1356, species assumed): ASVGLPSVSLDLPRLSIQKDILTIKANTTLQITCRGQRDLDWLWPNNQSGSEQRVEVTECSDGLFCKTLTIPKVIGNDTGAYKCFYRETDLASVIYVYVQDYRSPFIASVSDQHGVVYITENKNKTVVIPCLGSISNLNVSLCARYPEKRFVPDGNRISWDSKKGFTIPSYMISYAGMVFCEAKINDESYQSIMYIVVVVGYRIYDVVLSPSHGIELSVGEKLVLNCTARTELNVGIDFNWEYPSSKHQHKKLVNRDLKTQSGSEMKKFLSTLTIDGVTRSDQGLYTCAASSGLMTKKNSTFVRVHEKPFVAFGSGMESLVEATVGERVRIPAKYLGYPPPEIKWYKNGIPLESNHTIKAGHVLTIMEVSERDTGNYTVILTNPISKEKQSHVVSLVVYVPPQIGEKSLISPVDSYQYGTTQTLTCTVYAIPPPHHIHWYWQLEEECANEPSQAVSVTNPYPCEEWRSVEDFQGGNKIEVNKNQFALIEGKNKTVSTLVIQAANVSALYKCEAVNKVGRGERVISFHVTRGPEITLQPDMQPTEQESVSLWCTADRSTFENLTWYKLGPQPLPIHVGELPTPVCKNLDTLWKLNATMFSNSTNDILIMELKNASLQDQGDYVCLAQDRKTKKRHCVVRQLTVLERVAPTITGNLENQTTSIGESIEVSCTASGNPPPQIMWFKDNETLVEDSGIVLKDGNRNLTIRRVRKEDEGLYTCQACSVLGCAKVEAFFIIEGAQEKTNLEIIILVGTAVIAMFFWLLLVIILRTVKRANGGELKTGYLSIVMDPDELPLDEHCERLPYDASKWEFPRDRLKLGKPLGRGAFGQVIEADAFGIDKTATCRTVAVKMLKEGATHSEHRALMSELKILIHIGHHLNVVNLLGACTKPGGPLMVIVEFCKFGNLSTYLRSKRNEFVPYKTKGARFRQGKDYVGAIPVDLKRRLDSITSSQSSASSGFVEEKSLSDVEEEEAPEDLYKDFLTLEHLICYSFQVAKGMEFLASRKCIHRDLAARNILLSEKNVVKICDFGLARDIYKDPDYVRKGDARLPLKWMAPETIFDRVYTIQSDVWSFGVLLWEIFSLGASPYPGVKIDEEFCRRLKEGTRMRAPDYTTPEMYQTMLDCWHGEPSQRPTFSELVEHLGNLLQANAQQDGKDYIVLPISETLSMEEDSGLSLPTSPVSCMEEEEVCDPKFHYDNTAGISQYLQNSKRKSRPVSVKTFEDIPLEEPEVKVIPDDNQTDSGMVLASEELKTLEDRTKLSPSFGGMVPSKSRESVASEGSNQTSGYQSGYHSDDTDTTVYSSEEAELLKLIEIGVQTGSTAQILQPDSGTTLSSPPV

IC50 [1]: 0.43 µM
VEGFR-2 AVG % Activity at Specific Concentration [1, 4]: −3%
VEGFR-2 AVG % Activity at Specific Concentration [1, 5]: 24%
VEGFR-2 AVG % Activity at Specific Concentration [1, 6]: 73%
VEGFR-2 AVG % Activity at Specific Concentration [1, 7]: 85%
VEGFR-2 AVG % Activity at Specific Concentration [1, 8]: 86%
VEGFR-2 AVG % Activity at Specific Concentration [1, 9]: 86%
VEGFR-2 AVG % Activity at Specific Concentration [1, 10]: −6%
VEGFR-2 AVG % Activity at Specific Concentration [1, 11]: 2%
VEGFR-2 AVG % Activity at Specific Concentration [1, 12]: 50%
VEGFR-2 AVG % Activity at Specific Concentration [1, 13]: 78%
VEGFR-2 AVG % Activity at Specific Concentration [1, 14]: 82%
VEGFR-2 AVG % Activity at Specific Concentration [1, 15]: 84%
VEGFR-2 Fold [1]: 8.78
IC50 [2]: 0.99 µM
RET AVG % Activity at Specific Concentration [2, 4]: 5%
RET AVG % Activity at Specific Concentration [2, 5]: 52%
RET AVG % Activity at Specific Concentration [2, 6]: 92%
RET AVG % Activity at Specific Concentration [2, 7]: 100%
RET AVG % Activity at Specific Concentration [2, 8]: 102%
RET AVG % Activity at Specific Concentration [2, 9]: 100%
RET AVG % Activity at Specific Concentration [2, 10]: 0%
RET AVG % Activity at Specific Concentration [2, 11]: 20%
RET AVG % Activity at Specific Concentration [2, 12]: 75%
RET AVG % Activity at Specific Concentration [2, 13]: 94%
RET AVG % Activity at Specific Concentration [2, 14]: 97%
RET AVG % Activity at Specific Concentration [2, 15]: 99%
RET Fold [2]: 23.02
IC50 [3]: 0.3 µM
c-Kit AVG % Activity at Specific Concentration [3, 4]: −1%
c-Kit AVG % Activity at Specific Concentration [3, 5]: 11%
c-Kit AVG % Activity at Specific Concentration [3, 6]: 75%
c-Kit AVG % Activity at Specific Concentration [3, 7]: 97%
c-Kit AVG % Activity at Specific Concentration [3, 8]: 98%
c-Kit AVG % Activity at Specific Concentration [3, 9]: 94%
c-Kit AVG % Activity at Specific Concentration [3, 10]: −1%
c-Kit AVG % Activity at Specific Concentration [3, 11]: 1%
c-Kit AVG % Activity at Specific Concentration [3, 12]: 49%
c-Kit AVG % Activity at Specific Concentration [3, 13]: 93%
c-Kit AVG % Activity at Specific Concentration [3, 14]: 98%
c-Kit AVG % Activity at Specific Concentration [3, 15]: 94%
c-Kit Fold [3]: 4.10
Compound: COCCOCCOCCOCCOCCOCCOCCOCCNC(=O)c1c(C)[nH]c(/C=C2\C(=O)Nc3ccc(F)cc32)c1C [mPEG8-semaxanib, (Z)-5-((5-fluoro-2-oxoindolin-3-ylidene)methyl)-2,4-dimethyl-1H-pyrrole-3-mPEG8-amide]

IC50 [1]: 0.3 µM
VEGFR-2 AVG % Activity at Specific Concentration [1, 4]: 1%
VEGFR-2 AVG % Activity at Specific Concentration [1, 5]: 20%
VEGFR-2 AVG % Activity at Specific Concentration [1, 6]: 61%
VEGFR-2 AVG % Activity at Specific Concentration [1, 7]: 77%
VEGFR-2 AVG % Activity at Specific Concentration [1, 8]: 84%
VEGFR-2 AVG % Activity at Specific Concentration [1, 9]: 89%
VEGFR-2 AVG % Activity at Specific Concentration [1, 10]: −1%
VEGFR-2 AVG % Activity at Specific Concentration [1, 11]: 8%
VEGFR-2 AVG % Activity at Specific Concentration [1, 12]: 46%
VEGFR-2 AVG % Activity at Specific Concentration [1, 13]: 71%
VEGFR-2 AVG % Activity at Specific Concentration [1, 14]: 84%
VEGFR-2 AVG % Activity at Specific Concentration [1, 15]: 84%
VEGFR-2 Fold [1]: 6.12
IC50 [2]: 0.87 µM
RET AVG % Activity at Specific Concentration [2, 4]: 5%
RET AVG % Activity at Specific Concentration [2, 5]: 49%
RET AVG % Activity at Specific Concentration [2, 6]: 90%
RET AVG % Activity at Specific Concentration [2, 7]: 105%
RET AVG % Activity at Specific Concentration [2, 8]: 104%
RET AVG % Activity at Specific Concentration [2, 9]: 100%
RET AVG % Activity at Specific Concentration [2, 10]: 0%
RET AVG % Activity at Specific Concentration [2, 11]: 21%
RET AVG % Activity at Specific Concentration [2, 12]: 74%
RET AVG % Activity at Specific Concentration [2, 13]: 96%
RET AVG % Activity at Specific Concentration [2, 14]: 101%
RET AVG % Activity at Specific Concentration [2, 15]: 97%
RET Fold [2]: 20.23
IC50 [3]: 0.39 µM
c-Kit AVG % Activity at Specific Concentration [3, 4]: 0%
c-Kit AVG % Activity at Specific Concentration [3, 5]: 16%
c-Kit AVG % Activity at Specific Concentration [3, 6]: 90%
c-Kit AVG % Activity at Specific Concentration [3, 7]: 102%
c-Kit AVG % Activity at Specific Concentration [3, 8]: 105%
c-Kit AVG % Activity at Specific Concentration [3, 9]: 95%
c-Kit AVG % Activity at Specific Concentration [3, 10]: −1%
c-Kit AVG % Activity at Specific Concentration [3, 11]: 2%
c-Kit AVG % Activity at Specific Concentration [3, 12]: 60%
c-Kit AVG % Activity at Specific Concentration [3, 13]: 100%
c-Kit AVG % Activity at Specific Concentration [3, 14]: 105%
c-Kit AVG % Activity at Specific Concentration [3, 15]: 102%
c-Kit Fold [3]: 5.30
Compound: COCCOCCOCCOCCOCCOCCOCCOCCOCCNC(=O)c1c(C)[nH]c(/C=C2\C(=O)Nc3ccc(F)cc32)c1C [mPEG9-semaxanib, (Z)-5-((5-fluoro-2-oxoindolin-3-ylidene)methyl)-2,4-dimethyl-1H-pyrrole-3-mPEG8-amide]
